Test results reported in article doi:10.1101/2023.03.24.534094v2 (biorxiv, 2023).
Read-outs that look alike come from different tables or passages of the source. Each block holds one molecule with its values, some of them ahead of it.

Tests used:
Assay in all cases: biochemical
DYRK2 = target: T1, DYRK2 (Homo sapiens, UniProt Q92630)
T1 sequence (Q92630 1-601): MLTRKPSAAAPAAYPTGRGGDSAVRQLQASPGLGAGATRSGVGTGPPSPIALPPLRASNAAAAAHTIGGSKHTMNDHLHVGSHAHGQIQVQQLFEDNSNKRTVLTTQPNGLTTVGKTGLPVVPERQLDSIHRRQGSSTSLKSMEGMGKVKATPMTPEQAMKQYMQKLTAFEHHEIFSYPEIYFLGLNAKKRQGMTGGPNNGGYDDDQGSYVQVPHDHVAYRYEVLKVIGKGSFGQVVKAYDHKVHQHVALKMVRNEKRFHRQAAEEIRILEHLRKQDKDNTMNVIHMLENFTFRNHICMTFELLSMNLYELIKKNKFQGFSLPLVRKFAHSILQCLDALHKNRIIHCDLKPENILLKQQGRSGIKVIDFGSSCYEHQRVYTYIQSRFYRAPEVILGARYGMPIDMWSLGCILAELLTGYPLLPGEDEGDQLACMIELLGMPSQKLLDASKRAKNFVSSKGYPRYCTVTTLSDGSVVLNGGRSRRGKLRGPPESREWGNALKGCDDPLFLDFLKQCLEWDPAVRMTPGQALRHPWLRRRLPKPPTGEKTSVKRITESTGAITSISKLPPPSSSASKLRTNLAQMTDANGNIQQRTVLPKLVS

FGFR2 = FGFR2 (Homo sapiens, UniProt P21802)
Chain of FGFR2 (P21802 whole entry): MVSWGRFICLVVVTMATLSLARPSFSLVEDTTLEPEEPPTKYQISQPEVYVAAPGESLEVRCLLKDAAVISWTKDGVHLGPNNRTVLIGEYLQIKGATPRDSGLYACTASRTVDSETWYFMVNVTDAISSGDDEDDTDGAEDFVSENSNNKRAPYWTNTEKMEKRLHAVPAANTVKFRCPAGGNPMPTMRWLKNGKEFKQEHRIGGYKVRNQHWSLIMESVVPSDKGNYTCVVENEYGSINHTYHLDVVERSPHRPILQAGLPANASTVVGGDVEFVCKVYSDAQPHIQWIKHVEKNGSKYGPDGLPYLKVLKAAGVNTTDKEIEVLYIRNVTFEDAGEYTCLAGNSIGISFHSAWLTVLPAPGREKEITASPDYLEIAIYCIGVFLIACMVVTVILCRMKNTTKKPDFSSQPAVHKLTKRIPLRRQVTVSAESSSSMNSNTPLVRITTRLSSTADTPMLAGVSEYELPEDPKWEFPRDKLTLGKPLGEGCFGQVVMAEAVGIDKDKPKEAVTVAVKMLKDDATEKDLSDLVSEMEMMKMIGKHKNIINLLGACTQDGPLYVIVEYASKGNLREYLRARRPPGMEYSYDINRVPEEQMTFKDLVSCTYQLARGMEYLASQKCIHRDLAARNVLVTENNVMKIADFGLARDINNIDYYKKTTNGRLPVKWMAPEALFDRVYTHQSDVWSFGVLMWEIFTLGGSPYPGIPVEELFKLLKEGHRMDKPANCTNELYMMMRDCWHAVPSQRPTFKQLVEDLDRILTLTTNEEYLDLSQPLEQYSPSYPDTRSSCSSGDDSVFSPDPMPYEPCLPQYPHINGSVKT

PIM3 = PIM3 (Homo sapiens, UniProt Q86V86)
VRK1 = target: T2, VRK1 (Homo sapiens, UniProt Q99986)
T2 sequence (Q99986 1-396): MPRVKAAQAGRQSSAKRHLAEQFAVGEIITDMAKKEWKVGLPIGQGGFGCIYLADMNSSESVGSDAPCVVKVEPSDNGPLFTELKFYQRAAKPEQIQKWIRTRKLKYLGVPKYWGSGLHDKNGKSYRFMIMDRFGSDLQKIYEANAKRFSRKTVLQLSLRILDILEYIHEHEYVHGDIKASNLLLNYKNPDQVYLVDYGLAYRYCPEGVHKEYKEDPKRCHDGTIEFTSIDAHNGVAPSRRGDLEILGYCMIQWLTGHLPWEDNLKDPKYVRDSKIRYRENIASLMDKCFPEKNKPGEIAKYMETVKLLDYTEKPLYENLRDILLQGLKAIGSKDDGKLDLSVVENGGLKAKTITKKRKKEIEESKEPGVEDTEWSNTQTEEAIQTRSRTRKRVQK

PIM1 = PIM1 (Homo sapiens, UniProt P11309)
Chain of PIM1 (P11309 whole entry): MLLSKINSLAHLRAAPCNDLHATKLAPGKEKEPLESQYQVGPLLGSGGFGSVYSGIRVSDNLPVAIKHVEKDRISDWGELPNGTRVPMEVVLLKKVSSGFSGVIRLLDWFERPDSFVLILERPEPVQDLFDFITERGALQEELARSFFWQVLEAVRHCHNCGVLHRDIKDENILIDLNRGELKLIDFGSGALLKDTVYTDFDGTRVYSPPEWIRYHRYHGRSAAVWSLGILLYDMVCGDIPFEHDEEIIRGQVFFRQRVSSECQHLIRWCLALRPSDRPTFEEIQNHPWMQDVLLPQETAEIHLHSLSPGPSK

MST3 = MST3 (Homo sapiens, UniProt Q9Y6E0)
Chain of MST3 (Q9Y6E0 whole entry): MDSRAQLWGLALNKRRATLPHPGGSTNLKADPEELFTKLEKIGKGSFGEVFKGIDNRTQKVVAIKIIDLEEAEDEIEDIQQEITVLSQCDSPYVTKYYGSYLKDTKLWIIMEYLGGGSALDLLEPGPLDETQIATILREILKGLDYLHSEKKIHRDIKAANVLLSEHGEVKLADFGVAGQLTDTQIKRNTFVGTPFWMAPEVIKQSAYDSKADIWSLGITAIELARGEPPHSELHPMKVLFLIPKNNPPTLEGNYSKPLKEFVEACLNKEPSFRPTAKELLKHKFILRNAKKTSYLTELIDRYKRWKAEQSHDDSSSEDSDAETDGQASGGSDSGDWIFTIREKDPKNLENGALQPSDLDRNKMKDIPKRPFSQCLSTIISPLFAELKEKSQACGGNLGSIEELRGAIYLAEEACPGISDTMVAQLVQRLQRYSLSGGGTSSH

Wnk1 = Wnk1 (Homo sapiens, UniProt Q9H4A3)
Chain of Wnk1 (Q9H4A3 whole entry): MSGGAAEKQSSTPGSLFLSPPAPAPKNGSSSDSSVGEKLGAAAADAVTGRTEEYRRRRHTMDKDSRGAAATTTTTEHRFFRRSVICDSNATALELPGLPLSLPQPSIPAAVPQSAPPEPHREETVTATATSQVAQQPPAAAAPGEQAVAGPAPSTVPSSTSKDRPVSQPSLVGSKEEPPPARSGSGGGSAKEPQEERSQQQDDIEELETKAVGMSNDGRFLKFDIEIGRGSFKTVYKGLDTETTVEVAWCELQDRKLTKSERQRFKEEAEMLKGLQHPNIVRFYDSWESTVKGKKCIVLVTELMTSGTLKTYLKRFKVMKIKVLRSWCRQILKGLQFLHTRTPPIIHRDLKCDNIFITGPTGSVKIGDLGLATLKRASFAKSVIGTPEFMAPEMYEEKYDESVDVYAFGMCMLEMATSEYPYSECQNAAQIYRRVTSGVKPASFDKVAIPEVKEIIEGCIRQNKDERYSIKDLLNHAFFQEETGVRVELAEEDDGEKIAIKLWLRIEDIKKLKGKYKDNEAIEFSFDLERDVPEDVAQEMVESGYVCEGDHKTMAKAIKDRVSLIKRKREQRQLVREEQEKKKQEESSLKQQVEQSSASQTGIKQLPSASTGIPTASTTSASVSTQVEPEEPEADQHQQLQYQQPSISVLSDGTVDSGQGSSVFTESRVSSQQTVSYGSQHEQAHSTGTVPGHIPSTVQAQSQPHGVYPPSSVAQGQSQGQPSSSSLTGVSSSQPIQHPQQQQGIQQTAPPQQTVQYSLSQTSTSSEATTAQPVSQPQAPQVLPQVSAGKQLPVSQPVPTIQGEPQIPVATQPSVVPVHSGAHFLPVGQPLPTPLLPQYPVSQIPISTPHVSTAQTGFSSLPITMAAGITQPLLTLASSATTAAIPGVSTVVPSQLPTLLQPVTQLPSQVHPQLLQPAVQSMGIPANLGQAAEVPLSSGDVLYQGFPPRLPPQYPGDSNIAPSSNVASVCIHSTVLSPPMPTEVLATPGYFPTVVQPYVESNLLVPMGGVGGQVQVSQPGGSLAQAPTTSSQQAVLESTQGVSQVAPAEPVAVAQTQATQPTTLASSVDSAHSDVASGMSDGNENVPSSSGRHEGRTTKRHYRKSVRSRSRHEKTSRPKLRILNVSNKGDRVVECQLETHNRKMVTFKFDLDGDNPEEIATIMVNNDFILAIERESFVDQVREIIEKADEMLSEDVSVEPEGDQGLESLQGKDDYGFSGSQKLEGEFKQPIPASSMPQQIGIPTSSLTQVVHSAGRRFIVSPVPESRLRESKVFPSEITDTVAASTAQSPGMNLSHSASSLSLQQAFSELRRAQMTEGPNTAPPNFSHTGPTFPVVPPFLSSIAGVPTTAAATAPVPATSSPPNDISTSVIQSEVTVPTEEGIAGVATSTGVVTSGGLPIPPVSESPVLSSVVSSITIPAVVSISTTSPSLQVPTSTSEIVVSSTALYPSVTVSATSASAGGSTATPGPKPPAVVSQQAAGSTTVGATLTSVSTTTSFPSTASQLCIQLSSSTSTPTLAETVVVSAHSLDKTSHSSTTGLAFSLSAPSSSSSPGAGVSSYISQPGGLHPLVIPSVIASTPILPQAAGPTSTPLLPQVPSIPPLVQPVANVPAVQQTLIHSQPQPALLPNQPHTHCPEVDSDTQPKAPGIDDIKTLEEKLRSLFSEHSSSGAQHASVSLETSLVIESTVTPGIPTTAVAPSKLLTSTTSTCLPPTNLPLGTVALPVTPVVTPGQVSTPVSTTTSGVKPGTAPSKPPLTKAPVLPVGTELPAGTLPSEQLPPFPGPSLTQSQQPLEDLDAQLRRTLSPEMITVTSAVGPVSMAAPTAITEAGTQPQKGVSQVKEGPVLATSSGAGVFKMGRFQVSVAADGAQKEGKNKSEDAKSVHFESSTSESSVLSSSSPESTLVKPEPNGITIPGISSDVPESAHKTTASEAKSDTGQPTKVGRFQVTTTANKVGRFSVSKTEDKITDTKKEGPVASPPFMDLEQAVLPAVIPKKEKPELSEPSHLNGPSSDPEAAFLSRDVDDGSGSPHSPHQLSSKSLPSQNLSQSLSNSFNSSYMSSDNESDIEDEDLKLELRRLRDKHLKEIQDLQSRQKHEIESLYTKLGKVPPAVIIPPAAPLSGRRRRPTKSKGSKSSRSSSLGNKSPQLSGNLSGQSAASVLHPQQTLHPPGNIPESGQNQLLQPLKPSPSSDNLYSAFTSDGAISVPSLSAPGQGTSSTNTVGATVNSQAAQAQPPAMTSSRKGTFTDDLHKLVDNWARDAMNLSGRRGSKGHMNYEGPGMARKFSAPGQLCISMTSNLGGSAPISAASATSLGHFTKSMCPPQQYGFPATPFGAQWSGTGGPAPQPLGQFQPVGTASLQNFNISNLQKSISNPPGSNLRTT

PAK1 = PAK1 (Homo sapiens, UniProt Q13153)
Chain of PAK1 (Q13153 whole entry): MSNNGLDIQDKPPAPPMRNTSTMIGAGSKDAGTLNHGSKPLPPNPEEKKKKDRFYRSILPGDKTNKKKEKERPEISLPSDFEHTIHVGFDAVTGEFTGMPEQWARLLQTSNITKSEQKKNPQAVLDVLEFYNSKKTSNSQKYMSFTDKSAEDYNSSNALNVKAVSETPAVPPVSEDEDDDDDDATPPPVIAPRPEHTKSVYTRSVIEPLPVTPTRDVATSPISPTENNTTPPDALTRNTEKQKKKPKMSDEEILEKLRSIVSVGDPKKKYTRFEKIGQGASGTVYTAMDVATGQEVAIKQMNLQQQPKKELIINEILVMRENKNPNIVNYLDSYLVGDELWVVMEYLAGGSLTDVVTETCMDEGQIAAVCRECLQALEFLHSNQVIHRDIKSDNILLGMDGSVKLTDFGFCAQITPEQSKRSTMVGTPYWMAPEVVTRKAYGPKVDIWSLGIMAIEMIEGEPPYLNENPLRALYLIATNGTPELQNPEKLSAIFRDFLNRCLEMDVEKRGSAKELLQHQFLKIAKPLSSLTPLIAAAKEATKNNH

MST1 = target: T3, MST1 (Homo sapiens, UniProt Q13043)
T3 sequence (Q13043 1-487): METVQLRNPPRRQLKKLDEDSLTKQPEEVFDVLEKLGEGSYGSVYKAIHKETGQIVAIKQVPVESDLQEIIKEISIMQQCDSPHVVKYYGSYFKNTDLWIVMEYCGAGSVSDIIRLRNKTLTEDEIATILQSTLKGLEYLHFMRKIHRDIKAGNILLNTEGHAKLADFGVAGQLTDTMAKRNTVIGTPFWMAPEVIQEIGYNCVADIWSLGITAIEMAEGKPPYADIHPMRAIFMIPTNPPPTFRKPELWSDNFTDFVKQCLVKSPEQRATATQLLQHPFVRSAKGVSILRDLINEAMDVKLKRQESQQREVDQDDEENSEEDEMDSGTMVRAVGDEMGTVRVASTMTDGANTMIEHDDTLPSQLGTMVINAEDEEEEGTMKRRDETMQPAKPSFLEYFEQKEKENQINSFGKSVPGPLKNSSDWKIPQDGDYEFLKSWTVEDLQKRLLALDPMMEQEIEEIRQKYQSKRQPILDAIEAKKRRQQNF

ΔTm at 10 µM (DYRK2; read-out: dTm 8): 0.1 °C | ΔTm at 10 µM (FGFR2; read-out: dTm 8): 4.1 °C | ΔTm at 10 µM (PIM3; read-out: dTm 8): 1 °C | ΔTm at 10 µM (VRK1; read-out: dTm 8): 0.7 °C
Compound: CNc1ncc2cc(-c3cc(Cl)ccc3Cl)c(=O)n(CCCCN)c2n1 [compound 8, 8-(4-Aminobutyl)-6-(2,5-dichlorophenyl)-2-(methylamino)pyrido[2,3-d]pyrimidin-7(8H)-one]

ΔTm at 10 µM (DYRK2; read-out: dTm 11): 0 °C | ΔTm at 10 µM (FGFR2; read-out: dTm 11): 3.4 °C | ΔTm at 10 µM (PIM3; read-out: dTm 11): 0.9 °C | ΔTm at 10 µM (VRK1; read-out: dTm 11): 0.5 °C
Compound: CNc1ncc2cc(-c3cc(Br)ccc3Br)c(=O)n(CCCCN)c2n1 [compound 11, 8-(4-Aminobutyl)-6-(2,5-dibromophenyl)-2-(methylamino)pyrido[2,3-d]pyrimidin-7(8H)-one]

ΔTm at 10 µM (PIM1; read-out: dTm 6): 1.2 °C | ΔTm at 10 µM (MST3; read-out: ∆Tm 6): 2.7 °C | ΔTm at 10 µM (Wnk1; read-out: ∆Tm 6): 0 °C
Compound: CNc1ncc2cc(-c3cc(Br)ccc3Cl)c(=O)n(CCCCN)c2n1 [compound 6, 8-(4-Aminobutyl)-6-(5-bromo-2-chlorophenyl)-2-(methylamino)pyrido[2,3-d]pyrimidin-7(8H)-one]

ΔTm at 10 µM (PIM1; read-out: dTm 7): 0.6 °C | ΔTm at 10 µM (MST3; read-out: ∆Tm 7): 0.8 °C | ΔTm at 10 µM (PAK1; read-out: ∆Tm 7): 0.6 °C | ΔTm at 10 µM (Wnk1; read-out: ∆Tm 7): 1.1 °C
Compound: CNc1ncc2cc(-c3cc(Br)ccc3Cl)c(=O)n(C[C@H]3OC[C@H](N)CO3)c2n1 [compound 7, 8-(((2r,5r)-5-Amino-1,3-dioxan-2-yl)methyl)-6-(5-bromo-2-chlorophenyl)-2-(methylamino)pyrido[2,3-d]pyrimidin-7(8H)-one]

ΔTm at 10 µM (PIM1; read-out: dTm MR22 (5)): 1.1 °C | ΔTm at 10 µM (MST1; read-out: ∆Tm MR22 (5)): -0.3 °C | ΔTm at 10 µM (MST3; read-out: ∆Tm MR22 (5)): 1.6 °C | ΔTm at 10 µM (Wnk1; read-out: ∆Tm MR22 (5)): -0.1 °C
Compound: CNc1ncc2cc(-c3cc(F)ccc3F)c(=O)n(CCCCN)c2n1 [compound 5, 8-(4-Aminobutyl)-6-(2,5-difluorophenyl)-2-(methylamino)pyrido[2,3-d]pyrimidin-7(8H)-one]

ΔTm at 10 µM (DYRK2; read-out: dTm 9): 0 °C | ΔTm at 10 µM (FGFR2; read-out: dTm 9): 2.1 °C | ΔTm at 10 µM (PIM3; read-out: dTm 9): 0.4 °C | ΔTm at 10 µM (VRK1; read-out: dTm 9): 0.1 °C
Compound: CNc1ncc2cc(-c3cc(C(F)(F)F)ccc3Cl)c(=O)n(CCCCN)c2n1 [compound 9, 8-(4-Aminobutyl)-6-(2-chloro-5-(trifluoromethyl)phenyl)-2-(methylamino)pyrido[2,3-d]pyrimidin-7(8H)-one]

ΔTm at 10 µM (DYRK2; read-out: dTm 10): 0 °C | ΔTm at 10 µM (FGFR2; read-out: dTm 10): 3.3 °C | ΔTm at 10 µM (PIM3; read-out: dTm 10): 0.8 °C | ΔTm at 10 µM (VRK1; read-out: dTm 10): 0.7 °C
Compound: CNc1ncc2cc(-c3cc(Cl)ccc3Br)c(=O)n(CCCCN)c2n1 [compound 10, 8-(4-Aminobutyl)-6-(2-bromo-5-chlorophenyl)-2-(methylamino)pyrido[2,3-d]pyrimidin-7(8H)-one]

ΔTm at 10 µM (DYRK2; read-out: dTm 12): -0.2 °C | ΔTm at 10 µM (FGFR2; read-out: dTm 12): 1.1 °C | ΔTm at 10 µM (PIM3; read-out: dTm 12): -1.2 °C | ΔTm at 10 µM (VRK1; read-out: dTm 12): 0.3 °C
Compound: CNc1ncc2cc(-c3cc(F)c(-c4cccc(C)n4)cc3F)c(=O)n(CCCCN)c2n1 [compound 12, 8-(4-Aminobutyl)-6-(2,5-difluoro-4-(6-methylpyridin-2-yl)phenyl)-2-(methylamino)pyrido[2,3-d]pyrimidin-7(8H)-one]

dTm G-5555 (2) (PIM1; 10 µM, binder): -1.6 °C | ∆Tm G-5555 (2) (MST1; 10 µM, binder): 4.5 degC | ∆Tm G-5555 (2) (MST3; 10 µM, binder): 7.5 degC | ∆Tm G-5555 (2) (PAK1; 10 µM, binder): 6.4 degC | ∆Tm G-5555 (2) (Wnk1; 10 µM, binder): 2.4 degC
Compound: CNc1ncc2cc(-c3ccc(-c4cccc(C)n4)cc3Cl)c(=O)n(CC3OCC(N)CO3)c2n1 (centres unmarked) [compound 2, G-5555]

ΔTm at 10 µM (PIM1; read-out: dTm MR21 (4)): 0.4 °C | ΔTm at 10 µM (MST1; read-out: ∆Tm MR21 (4)): 1.5 °C | ΔTm at 10 µM (MST3; read-out: ∆Tm MR21 (4)): 4.1 °C | ΔTm at 10 µM (PAK1; read-out: ∆Tm MR21 (4)): 1.6 °C | ΔTm at 10 µM (Wnk1; read-out: ∆Tm MR21 (4)): -0.4 °C
Compound: CNc1ncc2cc(-c3ccccc3Cl)c(=O)n(CCCCN)c2n1 [compound 4, 8-(4-Aminobutyl)-6-(2-chlorophenyl)-2-(methylamino)pyrido[2,3-d]pyrimidin-7(8H)-one]
